Tests used:
Akt, GSK3β, ERK1/2, p38 = test: Western blot of phosphorylation levels of PP2A targets in BE(2)-M17 cells; format: cell-based, human
Excerpt: As described herein, G-substrate overexpression altered the phosphorylation levels of PP2A targets known to play critical roles in cell survival. Akt, GSK3β, and ERK1/2 are known to promote cell survival when phosphorylated (Song et al., J. Cell. Mol. Med. 9: 59-71, 2005; Chen et al., 2004; Ray et al., J. Biol. Chem. 280: 31091-31100, 2005; Tamura et al., FEBS Lett. 569: 249-255, 2004) and phosphorylated p38 is known to mediate cell death in dopaminergic neurons exposed to various toxins including 6-OHDA (Choi et al., J. Biol. Chem. 279: 20451-20460, 2004; Ruano et al., Neurosci. 140: 1157-1168, 2006; Ou et al., Proc. Natl. Acad. Sci. USA 103: 10923-10928, 2006). To test whether changes in phosphorylation levels of these proteins are G-substrate-dependent, both control and G-substrate-expressing cells were exposed to 50 μM 6-OHDA for various durations (t=0, 2, 5 and 10 hr). BE(2)-M17 cells were prepared and cultured as described above. The level of the total and phosphorylated forms of these PP2A substrates was detected by Western blot analysis (FIGS. 7A, 7C, 7E, and 7H).
Cells and tissue samples were collected from and suspended in lysis buffer containing: 50 mM Tris-HCl, 0.15 M NaCl, 0.32 M sucrose, 1.0 mM EDTA, and 1% NP-40. In addition, phosphatase inhibitors I and II (1:100) and protease inhibitors (1:100) were added fresh prior to cell lysis (Sigma-Aldrich, P2850, P5276, and P8340 respectively). Following cell lysis, the homogenate was centrifuged, a portion of the supernatant was reserved for protein determination (BCA Assay, Pierce, Rockford, Ill.) and the remaining was stored at −20° C. 20 μg (in vitro cell preps) and 50 μg (tissue dissections) of solubilized protein were mixed 1:1 with sample buffer and boiled for 5 min. The samples and molecular weight standards were separated using the Criterion precast 10% SDS-polyacrylamide gel system (Bio-Rad, Hercules, Calif.). After electrophoresis, the proteins were electrically transferred to PVDF membranes at 100 V for 30 min. After transfer, blots were incubated in Tris-buffered saline with 0.1% Tween 20 (TBS-T) containing 5% BSA. Subsequently, blots were incubated with the following antibodies at 4° C. overnight (1:1000 unless otherwise stated): phospho-Akt (ser473), phospho-GSK3β (ser9), phospho-erk1/2, and phospho-p38 (Cell Signaling Technologies, Danvers, Mass.). HRP-conjugated secondary antibodies were then applied and immunoreactive bands were visualized with chemiluminescence (Amersham Biosciences, Arlington Heights, Ill.) and exposed onto film. Immunoblots were then stripped and re-probed for the expression of the total protein (Cell Signaling) and beta-actin (1:10 000) (Abcam) to serve as a loading control. Optical density analysis (NIH image) was used to determine the relative abundance of protein in each sample. The optical densities of the phospho epitopes were standardized to their respective total proteins and this value was used in the statistical analyses.

TH-positive neurons = test: Transduction of midbrain TH-positive neurons after intra-nigral lentivirus injection; format: in vivo, rat; details: naïve rats; compared to GFP-transduced rats
Experimental: A lentivirus encoding G-substrate (Lenti G-substrate) was stereotactically injected immediately dorsal to the substantia nigra in rats. The transduction efficiency of the lentivirus was then determined. Lenti G-substrate was transduced into TH-positive neurons to varying degrees depending upon the neuroanatomical level.
Rats received two 2.75 μl stereotaxic injections of either lenti-empty vector+lenti-eGFP (n=19), lenti-G substrate+lenti-eGFP (n=19), or lenti-YFP (n=14) and delivered at a rate of 0.2 μl/min using microinfusion pumps (Stoelting Co, Wood Dale, Ill.) with 10 min wait times after each injection. […]
Estimates of TH-positive neuronal number within the SN were performed using Stereo Investigator™ software (MBF Bioscience, Williston, Vt.) and stereologic principles (West et al., J. Comp. Neurol. 296: 1-22, 1990). […] For each tissue section analyzed, section thickness was assessed empirically and guard zones of 2 μm thickness were used at the top and bottom of each section. The SN was outlined under low magnification (2.5×) and approximately 50% of the outlined region was analyzed using a systematic random sampling design generated with the following stereologic parameters: grid size, 200×200 μm; counting frame size, 153×140 μm; and dissector height, 16 μm. […]

G-substrate: human wild type G-substrate (SEQ ID NO.: 1) overexpressed from a lentiviral vector
level of phosphorylated p38 (Akt, GSK3β, ERK1/2, p38; G-substrate overexpression, 50 μM 6-OHDA): did not alter
level of pAkt (Akt, GSK3β, ERK1/2, p38; G-substrate overexpression, basal and 2, 5 and 10 hours after 50 μM 6-OHDA): significant increase
basal level of pGSK3β (Akt, GSK3β, ERK1/2, p38; G-substrate-overexpressing cells, basal): increased
level of pErk2 (Akt, GSK3β, ERK1/2, p38; only at 10 hours following 50 μM 6-OHDA, no basal level increase): increased
level of pErk1 (Akt, GSK3β, ERK1/2, p38; similar trend as pErk2, 50 μM 6-OHDA): did not reach the statistical significance
total number of TH-positive neurons in midbrain (TH-positive neurons): did not alter
